Measurements reported in patent EP0671173A1, “Use of a tricyclic derivative for producing a medicament for the treatment of cognitive and memory disorders” (ADIR ET COMPAGNIE, priority 1994, dated 1995).

What was measured:
[1] = test system: souris mâles de la lignée BALB/c; conditions: 10 mg/kg, mouse; earlier results (Jaffard et coll., Behav. Pharmacol., 1991); cited from earlier work
[2] = test system: souris mâles de la lignée BALB/c; test: T-maze: acquisition and retention of a simple spatial discrimination in the mouse; type: in vivo; conditions: 10 mg/kg i.p. 30 minutes before the test; for Acquisition de la discrimination : Nombre de réponses correctes sur les 20 premiers essais de l'épreuve: day 3, 12 BALB/c mice per group; for Acquisition de la discrimination : Nombre de réponses correctes sur les 20 premiers essais de l'épreuve / Rétention de la discrimination : Essais au critère: mean ± standard error; for Rétention de la discrimination : Essais au critère: day 4 (24 h after acquisition), criterion 5/5; for Rétention : Réponses correctes sur les cinq premiers essais: placebo 3,0 ± 0,21
Source text: Comparaison des effets de la tianeptine et de l'isomère (+) de celle-ci sur l'alternance spontanée, l'acquisition et la rétention d'une discrimination spatiale simple (labyrinthe en T) chez la souris.
Le principe du test s'appuie sur la tendance innée qu'ont les mammifères confrontés à un choix entre deux directions à prendre, à aller explorer le lieu qui leur est le moins familier. Un animal placé plusieurs fois successivement à l'entrée d'un labyrinthe en T se dirigera de préférence vers le bras qu'il n'a pas visité précédemment. Pour que ce comportement apparaisse, il est évidemment nécessaire que l'animal se souvienne du dernier bras visité. Ce souvenir met en jeu la mémoire dite de travail. La souris est soumise à une phase d'apprentissage (acquisition) pendant laquelle elle doit choisir plusieurs fois, de suite entre les deux bras, jusq'uà ce qu'elle ait opté cinq fois de suite pour un bras déterminé par l'expérimentateur. Pour apprécier si l'animal a bien retenu ce qu'il a appris au cours de l'épreuve d'acquisition, il est replacé 24 heures plus tard dans la même situation. Le degré de rétention sera mesuré par le nombre d'épreuves subies avant la réussite de cinq essais consécutifs.
Animaux : 36 souris mâles de la lignée BALB/c, vierges de toute expérimentation et âgées de 14 à 16 semaines, sont utilisées. Elles sont placées, 15 jours avant le début des expériences, dans des cages individuelles (animalerie climatisée (22°C) et pourvue d'un cycle artificiel lumière-obscurité de 12 heures (7h ON)).
Appareil : C'est un labyrinthe en T construit en plexiglas de couleur grise. Le couloir central et les deux bras d'arrivée mesurent 35 cm de long, 10 cm de large et 20 cm de haut. Le compartiment de départ (10 x 12 cm) est séparé du couloir central par une porte à guillotine. L'entrée de chaque bras est également pourvue d'une porte. L'appareil utilisé est semi-automatique : l'alimentation des mangeoires, l'ouverture et la fermeture des portes sont commandées par un micro-ordinateur selon le protocole pré-établi.
Protocole : Toutes les épreuves se déroulent entre 9h et 16h et durant 4 jours (de J1 à J4) sans interruption. La ration alimentaire des animaux est réduite de façon à atteindre un poids corporel de 83-84 % du poids ad libitum pour les épreuves d'habituation (J1 et J2) et de 87-88 % lors des épreuves d'alternance et de discrimination spatiale (J3 et J4).
Habituation (J1-J2) : L'expérience proprement dite est précédée de deux séances d'habituation de 10 minutes (exploration libre, une séance par jour). L'animal est simplement placé dans l'appareil toutes portes ouvertes.
Alternances spontanées et acquisition de la discrimination (J3) : Ces deux épreuves ont lieu le lendemain sans interruption. Elles sont destinées à mesurer l'alternance (6 premiers essais) et la vitesse d'acquisition de la discrimination spatiale (essais suivants). Lors des 6 premiers essais, la nourriture est disposée à l'extrémité de chacun des deux bras. Lors de chaque essai, l'animal est placé dans le compartiment de départ pendant 30 secondes (intervalle entre essais). La porte donnant accès au couloir central est ouverte et la souris peut choisir entre les deux bras où elle reste enfermée pendant 30 secondes. On constate que l'animal normal alterne ses choix successifs (65 % d'alternance environ). Apartir du 6ème essai, la nourriture n'est plus disposée que dans un seul bras, toujours le même; le bras choisi est celui qui a été le moins visité au cours des 6 premiers essais. L'épreuve se poursuit alors jusqu'à ce que l'animal atteigne un critère de 5 bonnes réponses sur 5 essais consécutifs.
Rétention de la discrimination spatiale (J4) : Elle se déroule dans les mêmes conditions que l'acquisition (même bras renforcé) et se poursuit pendant un minimum de 10 essais ou, au-delà, jusqu'à l'atteinte du critère de 5/5. Le nombre d'essais est limité à 20. […]

SMILES	alternance spontanée, acquisition et rétention d'une discrimination simple (labyrinthe en T) [1]	Acquisition de la discrimination : Nombre de réponses correctes sur les 20 premiers essais de l'épreuve [2]	Rétention de la discrimination : Essais au critère [2]	Rétention : Réponses correctes sur les cinq premiers essais ([2]; day 4)	Rétention : Réponses correctes sur les dix premiers essais ([2]; day 4)
CN1c2ccccc2C(NCCCCCCC(=O)O)c2ccc(Cl)cc2S1(=O)=O (racemic) [Tianeptine, tianeptine]	facilitait	12,75 ± 0,77	8,58 ± 0,60 essais	n'a pas d'effet	–
CN1c2ccccc2C(NCCCCCCC(=O)O)c2ccc(Cl)cc2S1(=O)=O (single isomer, unassigned; (+)) [Isomère (+), (+)7-[(3-chloro-6-méthyl-5,5-dioxo-6,11-dihydrodibenzo[c,f]-[1,2]-thiazepin-11-yl)amino]heptanoatede sodium]	–	14,83 ± 0,75	7,83 ± 0,74 essais	3,92 ± 0,15	performances supérieures (p<0,02) à celles du groupe tianeptine
